Assay results: patent US11718650B2, “Immunogenic peptides and their use in immune disorders” (IMCYSE SA, priority 2006, dated 2023)
No end group written: not given here.

Assays:
[1] = system: WEHI cells; test: T cell clones from mice immunised with gp75-targeted Der p 1 peptides, lysis of WEHI cells; assay type: in vivo, mouse; conditions: 20 μg SC on aluminium hydroxide, three injections
Experimental: Groups of BALB/c mice were immunised subcutaneously (20 μg) with the experimental peptide [SEQ ID. NO: 10] or the control peptide [SEQ ID, NO: 11] adsorbed onto aluminium hydroxide. Three injections were performed at 2-week intervals. Ten days after the last immunisation, mice were sacrificed and CD4+ T cells prepared from the spleen using magnetic beads, CD4+ T cells (2×10^6 cells) were then stimulated in vitro by the Der p 1 T cell epitope (20 μg) presented by adherent spleen cells serving as antigen-presenting cells.
Ten days after stimulation the number of specific T cell lines obtained in each group was calculated by limiting dilution analysis. Each cell line was evaluated for its capacity to lyse WEHI cells, a B cell line selected for its efficacy in antigen-presentation by MHC class-II determinants, as described in Example 6. Only cells obtained from animals immunised with the peptide containing the glutaredoxin consensus sequence had acquired the capacity to lyse WEHI cells, and lysis occurs only in the presence of the cognate Der p 1 T cell epitope.

[2] = system: BALB/c mice; test: adoptive transfer of cytolytic T cell clones in asthma elicited by nasal instillation of Der p 1; assay type: in vivo, mouse
Experimental: BALB/c mice were submitted to 2 series of 3 daily nasal instillations separated by 1 week, using 100 μg of the Der p 1 allergen. The day after the last nasal instillation, mice are sacrificed and checked for the presence of alterations characteristic of allergic asthma in the bronchoalveolar space and lung.
Two additional groups of mice are adoptively transferred with cytolytic T cell clones obtained as described in Example 11 using the Der p 1 peptide with the motif, either prior to or after the first series of nasal instillations.
BALF differential cell counts were carried out 4 days after the last series of nasal instillations (6 BALB/c per group). Cells were obtained by bronchoalveolar lavage of lungs and identified on cytospins as macrophages, neutrophils, eosinophils or lymphocytes. Mice received 2 series of 3 nasal instillations with either 100 μg Der p 1 (model) or NaCl (negative).
Broncho-alveolar lavage fluids were tested for the presence of cytokines (Table 6).

[3] = system: BALB/c mice; test: T cell clones from BALB/c mice immunised with Der p 1 derived peptide; assay type: in vivo, mouse; conditions: 20 μg subcutaneous, 3 injections
Experimental: Two groups of BALB/c mice were immunised by the subcutaneous route with either 20 μg of peptide with a T cell epitope sequence of the allergen Der p1 (SNYCQIYPPNANKIR [SEQ ID. NO: 5]) or a modified version thereof CGFS SNYCQIYPPNANKIR [SEQ ID. NO: 7] having at the N-terminus the sequence CGFS [SEQ ID. NO: 6].
After 3 injections, mice were sacrificed and CD4+ T cells were purified from the spleen and cloned by limiting dilution. T cell clones obtained from mice immunised with the SNYCQIYPPNANKIR [SEQ ID. […] Mice immunised with the peptide CGFS SNYCQIYPPNANKIR [SEQ ID.

[4] = system: BALB/c mice; test: beta-lactoglobulin allergy mouse model; assay type: in vivo
Experimental: BALB/c mice are immunised by 2 SC injections with 20 μg of the peptide of sequence CHGC AQKKIIAEK [SEQ ID. NO: 30] in alum. This is followed 15 days later by intraperitoneal sensitisation to BLG (5 μg in alum), on 2 occasions at a fortnight interval. Alternatively, peptide administration is given 15 days after IP sensitisation to BLG.
Hypersensitivity to BLG is verified in the mouse by assessing bronchial hyperreactivity after intranasal administration of BLG. All mice are submitted to intranasal administration of 10 μg of BLG in saline 10 days after the last injections. A control group is included in which intraperitoneal sensitisation is carried out without peptide immunisation.

[5] = system: regulatory T cell clones with cytolytic activity; test: activation of cytolytic regulatory T cell clones by peptide-loaded APC; assay type: cell-based; conditions: versus C-x-x-S counterpart
Experimental: Antigen-presenting cells were loaded with p21-35 in its native configuration [SEQ ID. NO: 2] or p21-35 in which serine in position 24 is substituted by cysteine […] [SEQ ID. NO: 29]. This substitution creates a redox moiety of the type C-x-x-C.
Several regulatory T cell clones with cytolytic activity were incubated with APC. […] The granzymes are two of the key players in induction of apoptosis of target cells.

[6] = system: Treg clone specific for p21-35; test: oxidative metabolism (ROS, carboxy-H2DCFDA) of cognate Treg cells; assay type: cell-based, mouse; conditions: 20 μg/ml, 90 minutes
Experimental: A Treg clone (10^5 cells) specific for p21-35 was incubated for 90 minutes with PBS (FIG. 5, panel A), peptide p21-35 (20 μg/ml in 200 μl PBS; FIG. 5, panel B) or tert-butyl hydroperoxide (100 μM in PBS; FIG. 5, panel C), which is an inducer of Reactive Oxygen Species (ROS). Cells were then labelled for 30 minutes with carboxy-H2DCFDA (12 μM), a fluorogenic marker for ROS in live cells, and then analysed by flow cytometry.

[7] = system: WEHI cells; test: apoptosis of peptide-loaded WEHI cells by cytolytic T cell clones, with inhibitors; assay type: cell-based, mouse; conditions: two CFSE-labelled populations, G121 Treg, 18 hours
Experimental: For inhibition of GZ-B activity, Z-AAD-CMK (Calbiochem) or 3,4-dichloroiso-coumarin (DCIC) (SIGMA) were added at indicated concentrations during all the co-culture period.
Experiments were carried out with p21-35-loaded CD11c dendritic (FIG. 13b: left panel) or WEHI cells (FIG. 13b: right panel). Upon incubation with R3TB7 virtually all dendritic cells (DC) or Wehi cells were induced into apoptosis as measured by caspase 3 activation.
Apoptosis can be induced by either the Fas-FasL pathway or by secretion of cytotoxic granules containing granzymes. Attempts were made to inhibit each of these pathways. Addition of increasing concentrations of an antibody towards FasL, or of granzyme B inhibitors, to a cell culture containing p21-35 loaded WEHI cells and a cytolytic T cell clone, increased the number of surviving WEHI cells in a dose-dependent manner (FIG. 13c). In a number of experiments it was shown that the anti-FasL antibody restored up to 80% of WEHI cell survival.
To further ascertain that APC lysis required direct contact with cytolytic T cells through MHC class II presentation of p21-35, an experiment was carried out in which two identical populations of Wehi cells were loaded with either p21-35 or with an irrelevant peptide (p71-85). These two populations could be distinguished by differential CFSE labelling. It can be seen from FIG. 13e that, while WEHI cells presenting p21-35 were fully lysed, only 40% of p71-85-loaded cells were affected.

[8] = system: CD4+ effector T cells; test: activation of CD4+ effector T cells from patients sensitised to Der p 2; assay type: cell-based, human
Text: Chemokines involved in attracting T lymphocytes to the lung are not precisely identified. The cytolytic Tregs described here express CD103 but not CCR7, which should confer them with the capacity to migrate to inflamed tissues. Other chemokines such as CCR5 and CCR3 were not detected. […] In an experimental model of asthma, including peripheral sensitisation and allergen inhalation, it was shown that Tregs have the capacity to prevent and suppress both inflammatory infiltration and airway hyperreactivity, which are the hallmarks of bronchial asthma. An LPS-free recombinant form of a main allergen, Der p 2, was used, which is involved in a large proportion of patients suffering from allergic asthma.

[9] = system: p21-35-loaded Wehi cells; test: derivatisation of T cell clones after immunisation, screening for apoptosis of p21-35-loaded Wehi cells; assay type: in vivo, mouse
Experimental: Derivatisation of regulatory T cell clones. BALB/c mice were immunised by 3 footpad injections of 20 μg/ml peptide mp21-35Asn in alum at 2 weeks intervals. Ten days after the last injection, spleen CD4+ T cells were stimulated with T cell depleted splenocytes from naïve mice in the presence of peptide mp21-35Asn. After 10 days, cells were restimulated in the same conditions but with 10 U/ml mouse II-2 (Roche). After the fifth restimulation, T cells were subcloned in the presence of 10 U/ml IL-2 by limiting dilution. The subsequent specific stimulations were carried out in the presence of 20 U/ml mouse IL-2. The G121 T cell line was derived as previously described (Janssens et al. (2003) J. Immunol. 171, 4604-4612.
T cell clones were derived for phenotypic analysis from the spleen of mice injected with either mp21-35Asn in alum, mp21-35Asn in CFA/IFA (complete or incomplete Freund adjuvant), Der p 2 or saline as a control. A total of 17 clones were obtained, which expansion was fully dependent of addition of IL-2. These clones were maintained at rest for 10 days before assessing expression of CD25. Positive clones were then screened for their capacity to induce apoptosis of p21-35-loaded Wehi cells using annexin V binding as readout.

[10] = system: G221N; test: peptide processing assay with effector T cell clone G221N; assay type: cell-based, mouse; conditions: NaN3/deoxyglucose, colchicine, chloroquine
[11] = prior to or after sensitisation

CGFS SNYCQIYPPNANKIR SGGSGGSGG IITIAVVAALLLVAAIFGVASCLIRSRSTKNEANQPLLTDS [SEQ ID. NO: 10]
T cell clones with Treg (cytotoxic) properties derived from immunised mice [1]: All T cell clones obtained after treatment with the construct and re-stimulated in vitro were cytotoxic

CGFSSNYCQIYPPNANKIR (glutaredoxin-like consensus sequence and dominant T cell epitope of the Der p 1 allergen) [SEQ ID. NO: 7]
BAL IFN-gamma ([2]; Prevention): 0 pg/mL | BAL IL-2 ([2]; Prevention): 0.7 pg/mL | BAL IL-4 ([2]; Prevention): 0 pg/mL | BAL IL-5 ([2]; Prevention): 0.3 pg/mL | BAL IL-10 ([2]; Prevention): 10 pg/mL | BAL IL-13 ([2]; Prevention): 0.2 pg/mL | BAL TGF-beta ([2]; Prevention): 5.8 pg/mL | BAL TNF-alpha ([2]; Prevention): 0.7 pg/mL | BAL IFN-gamma ([2]; Suppression): 0 pg/mL | BAL IL-2 ([2]; Suppression): 0.8 pg/mL | BAL IL-4 ([2]; Suppression): 0.7 pg/mL | BAL IL-5 ([2]; Suppression): 0.5 pg/mL | BAL IL-10 ([2]; Suppression): 2 pg/mL | BAL IL-13 ([2]; Suppression): 0.3 pg/mL | BAL TGF-beta ([2]; Suppression): 0 pg/mL | BAL TNF-alpha ([2]; Suppression): 0 pg/mL | type of T cell clones obtained from immunised mice [3]: produced T cell clones with cytolytic properties

CHGC AQKKIIAEK (CHGCAQKKIIAEK; thioredox motif sequence CHGC linked to T cell epitope of Bovine beta-lactoglobulin (BLG)) [SEQ ID. NO: 30]
capacity to react to BLG nasal instillation ([4]; 20 μg in alum, 2 SC injections prior to or after sensitisation): completely lost the capacity to react to BLG nasal instillation | eosinophils in bronchoalveolar lavage fluid [4, 11]: lack of eosinophils | hyperreactivity upon challenge with methacholine [4, 11]: absence of hyperreactivity

CHGCEPCIIHRGKPF (p21-35 peptide of Der p2 allergen mutated at residue 24) [SEQ ID. NO: 29]
T cell activation assessed by cytokine production [5]: higher degree of T cell activation | transcription of mRNA for FasL and granzymes [5]: more than its C-x-x-S counterparts

CHGSEPCIIHRGKPF (the p21-35 peptide of Der p 2 allergen) [amino acids 21 to 35 of Der p 2]
fluorescence intensity due to ROS increase [6]: doubling | lysis of WEHI cells loaded with the peptide [7]: fully lysed | activation of patients' CD4+ effector T cells [8]: activated CD4+ effector T cells from patients sensitised to Der p 2

QYIKANSKFIGITELGGCHGSEPCNIHRGKPF (not fully specified (residues 18, 24); cysteine pairing not given here) [mp21-35Asn]
cytolytic clones among CD4+CD25+ T cell clones ([9]; immunised in CFA/IFA): 0/5 | cytolytic clones among CD4+CD25+ T cell clones ([9]; immunised in alum): 8/8

SNYCQIYPPNANKIR (dominant T cell epitope of Der p 1 allergen) [SEQ ID. NO: 5, reference compound]
type of T cell clones obtained from immunised mice [3]: produced effector CD4+ T cells

SNYCQIYPPNANKIR SGGSGGSGG IITIAVVAALLLVAAIFGVASCLIRSRSTKNEANQPLLTDS [SEQ ID. NO: 11, reference compound]
T cell clones with Treg (cytotoxic) properties derived from immunised mice [1]: not from mice that received the control peptide

p71-85: alternative major T cell epitope (p71-85) located on Der p 2 (NACHYMKCPLVKGQQ; UniProt P49278 88-102, looked up, fragment) [reference compound]
lysis of WEHI cells loaded with the peptide [7]: 40% | induction of cytolytic Tregs towards the epitope ([9]; mouse, in vivo): not possible to induce cytolytic Tregs

B1: Der p 2: Recombinant full-length Der p 2 produced in Pichia pastoris (protein, UniProt P49278 1-146, looked up)
chain: MMYKILCLSLLVAAVARDQVDVKDCANHEIKKVLVPGCHGSEPCIIHRGKPFQLEAVFEANQNTKTAKIEIKASIDGLEVDVPGIDPNACHYMKCPLVKGQQYDIKYTWNVPKIAPKSENVVVTVKVMGDDGVLACAIATHAKIRD
modifications: full-length recombinant, Pichia pastoris
notes: Recombinant full-length Der p 2 produced in Pichia pastoris
requirement for internalisation, fusion with and acidification of late endosomes [10]: required internalisation into antigen-presenting cells | cytolytic clones among CD4+CD25+ T cell clones ([9]; mice immunised with Der p 2): 0/4
